Source: ChEMBL document CHEMBL1147996, “Synthesis and biological evaluation of phosphino dipeptide isostere inhibitor of human beta-secretase (BACE1)” (Bioorg Med Chem, 2007)
*1 amine or outer side, *2 acyl side, *3 side chain or, on linkers, in order; H or OH if unused. Where a SMILES comes first, the peptide text is derived from it. [ ]: non-standard residue; d: D form. X3 = CC(C)C[C@@H](N[*:1])P(=O)(O)CC(C)C(=O)[*:2]; X1 = CC(C)C[C@H](N[*:1])P(=O)(O)CC(C)C(=O)[*:2]; X2 = CC(C)CC(N[*:1])P(=O)(O)CC(C)C(=O)[*:2]

Columns and labels:
Beta-secretase 1 = Beta-secretase 1 (Homo sapiens, UniProt P56817); assay: Inhibition of human BACE1 expressed in HEK293 cells; assay type: cell-based
Sequence of Beta-secretase 1 (P56817 whole entry): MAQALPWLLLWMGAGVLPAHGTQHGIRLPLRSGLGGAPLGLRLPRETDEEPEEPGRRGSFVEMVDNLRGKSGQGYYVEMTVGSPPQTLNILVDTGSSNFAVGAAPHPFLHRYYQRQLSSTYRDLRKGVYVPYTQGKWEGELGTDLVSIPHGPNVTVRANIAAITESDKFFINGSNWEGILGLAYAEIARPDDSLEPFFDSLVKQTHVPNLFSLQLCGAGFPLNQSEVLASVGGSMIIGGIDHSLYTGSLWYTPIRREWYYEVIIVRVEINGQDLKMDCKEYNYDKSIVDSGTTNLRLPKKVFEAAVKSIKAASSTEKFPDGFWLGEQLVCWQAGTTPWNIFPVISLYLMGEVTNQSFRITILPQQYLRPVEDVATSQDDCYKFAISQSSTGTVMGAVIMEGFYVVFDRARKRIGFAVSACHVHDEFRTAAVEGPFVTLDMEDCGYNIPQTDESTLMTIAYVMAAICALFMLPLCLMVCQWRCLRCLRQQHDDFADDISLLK

Beta-secretase 2 = molecular target: T1, Beta-secretase 2 (Homo sapiens, UniProt Q9Y5Z0); assay: Inhibition of BACE2 expressed in HEK293 cells; assay type: cell-based
T1 sequence (Q9Y5Z0 whole entry): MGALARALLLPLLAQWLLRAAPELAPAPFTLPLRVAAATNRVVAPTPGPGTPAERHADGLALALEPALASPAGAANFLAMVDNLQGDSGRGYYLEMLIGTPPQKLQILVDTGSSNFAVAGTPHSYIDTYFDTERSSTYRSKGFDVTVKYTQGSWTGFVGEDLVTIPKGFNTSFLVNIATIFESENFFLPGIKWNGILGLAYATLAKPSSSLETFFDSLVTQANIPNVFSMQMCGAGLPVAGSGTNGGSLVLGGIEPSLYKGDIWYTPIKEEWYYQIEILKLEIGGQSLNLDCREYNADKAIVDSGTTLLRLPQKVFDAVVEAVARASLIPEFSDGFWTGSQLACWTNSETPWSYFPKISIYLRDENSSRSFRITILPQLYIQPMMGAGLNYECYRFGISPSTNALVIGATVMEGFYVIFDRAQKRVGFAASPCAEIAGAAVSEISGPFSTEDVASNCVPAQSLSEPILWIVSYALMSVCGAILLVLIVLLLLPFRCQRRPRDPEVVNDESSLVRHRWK

Cathepsin D = Cathepsin D (Homo sapiens, UniProt P07339); assay: Inhibition of cathepsin D expressed in HEK293 cells; assay type: cell-based
Sequence of Cathepsin D (P07339 65-162 limits assumed): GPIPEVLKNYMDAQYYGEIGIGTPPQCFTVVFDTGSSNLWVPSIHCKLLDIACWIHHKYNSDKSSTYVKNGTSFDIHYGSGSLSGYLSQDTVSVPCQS
Sequence of Cathepsin D (P07339 169-412 limits assumed): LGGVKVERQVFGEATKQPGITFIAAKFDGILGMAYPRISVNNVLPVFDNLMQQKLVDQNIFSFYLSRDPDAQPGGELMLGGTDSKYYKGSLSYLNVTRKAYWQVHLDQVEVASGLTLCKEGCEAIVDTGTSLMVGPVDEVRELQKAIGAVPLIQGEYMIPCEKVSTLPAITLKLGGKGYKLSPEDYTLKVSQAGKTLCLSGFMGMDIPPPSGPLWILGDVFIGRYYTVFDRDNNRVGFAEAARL

[1] = Inhibition of porcine pepsin; design: species or system Sus scrofa

SMILES: CC(C)C[C@H](NC(=O)[C@@H](N)CCC(=O)O)C(=O)N[C@@H](CC(=O)O)C(=O)N[C@H](CC(C)C)P(=O)(O)CC(C)C(=O)N[C@H](C(=O)N[C@@H](CCC(=O)O)C(=O)N[C@@H](Cc1ccccc1)C(=O)O)C(C)C (stereo partly specified) (H-ELD[X3]VEF-OH)
- IC50 (Beta-secretase 1): 2020 nM

SMILES: CC(C)C[C@H](NC(=O)[C@@H](N)CCC(=O)O)C(=O)N[C@@H](CC(=O)O)C(=O)N[C@@H](CC(C)C)P(=O)(O)CC(C)C(=O)N[C@H](C(=O)N[C@@H](CCC(=O)O)C(=O)N[C@@H](Cc1ccccc1)C(=O)O)C(C)C (stereo partly specified) (H-ELD[X1]VEF-OH)
- IC50 (Beta-secretase 2): 12 nM
- IC50 (Cathepsin D): 28 nM
- IC50 (Beta-secretase 1): 12 nM
- IC50 [1]: 8 nM

SMILES: CC(C)CC(NC(=O)[C@H](CC(=O)O)NC(=O)[C@H](CC(C)C)NC(=O)[C@@H](N)CCC(=O)O)P(=O)(O)CC(C)C(=O)N[C@H](C(=O)N[C@@H](CCC(=O)O)C(=O)N[C@@H](Cc1ccccc1)C(=O)O)C(C)C (stereo partly specified) (H-ELD[X2]VEF-OH)
- IC50 (Beta-secretase 1): 675 nM
